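Following 48 hours of exposure in 96-well plates, responses at five concentrations were used to interpolate endpoints linearly. GI50 marks 50% less growth.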 The source made the active and inactive calls. No stated cut-off is given here; in the data, active = GI50 up to about 1.1 µM and inactive = higher.
Assays:
Assay in all cases: inhibition of tumour cell growth, NCI panel, 48 h
786-0 = system: 786-0
A498 = system: A498
A549 = system: A549
ACHN = system: ACHN
BT-549 = system: BT-549
CAKI-1 = system: CAKI-1
CCRF-CEM = system: CCRF-CEM
COLO 205 = system: COLO 205
DU-145 = system: DU-145
EKVX = system: EKVX
HCC 2998 = system: HCC 2998
HCT-116 = system: HCT-116
HCT-15 = system: HCT-15
HL-60 = system: HL-60
HOP-62 = system: HOP-62
HOP-92 = system: HOP-92
HT-29 = system: HT-29
Hs-578T = system: Hs-578T
IGROV-1 = system: IGROV-1
K562 = system: K562
KM12 = system: KM12
LOX IMVI = system: LOX IMVI
M14 = system: M14
MCF7 = system: MCF7
MDA-MB-231 = system: MDA-MB-231
MDA-MB-435 = system: MDA-MB-435
MDA-N = system: MDA-N
MOLT-4 = system: MOLT-4
Malme-3M = system: Malme-3M
NCI-H226 = system: NCI-H226
NCI-H23 = system: NCI-H23
NCI-H460 = system: NCI-H460
NCI-H522 = system: NCI-H522
NCI/ADR-RES = system: NCI/ADR-RES
OVCAR-4 = system: OVCAR-4
OVCAR-5 = system: OVCAR-5
OVCAR-8 = system: OVCAR-8
PC-3 = system: PC-3
RPMI-8226 = system: RPMI-8226
RXF 393 = system: RXF 393
SF-268 = system: SF-268
SF-295 = system: SF-295
SF-539 = system: SF-539
SK-MEL-28 = system: SK-MEL-28
SK-MEL-2 = system: SK-MEL-2
SK-MEL-5 = system: SK-MEL-5
SK-OV-3 = system: SK-OV-3
SN12C = system: SN12C
SNB-19 = system: SNB-19
SW-620 = system: SW-620
T47D = system: T47D
TK-10 = system: TK-10
U-251 = system: U-251
UACC-257 = system: UACC-257
UACC-62 = system: UACC-62
UO-31 = system: UO-31
OVCAR-3 = system: OVCAR-3
SNB-75 = system: SNB-75

Measured: GI50

O=c1c(Cc2ccc(Cl)cc2)nnc2sc(-c3ccc(-c4ccc(F)c(Cl)c4)o3)nn12
34.9 µM: HCT-15
inactive: 786-0 71 µM | A498 42.2 µM | A549 51.3 µM | ACHN 35.7 µM | BT-549 78.2 µM | CAKI-1 43 µM | CCRF-CEM 45.7 µM | COLO 205 57.3 µM | DU-145 > 100 µM | EKVX 24.5 µM | HCC 2998 > 100 µM | HCT-116 29.7 µM | HL-60 43.7 µM | HOP-62 > 100 µM | HOP-92 58.7 µM | HT-29 50.5 µM | Hs-578T > 100 µM | IGROV-1 72.3 µM | K562 37.6 µM | KM12 91.2 µM | LOX IMVI 70.5 µM | M14 64.6 µM | MCF7 32.7 µM | MDA-MB-231 > 100 µM | MDA-MB-435 82 µM | MDA-N 95.3 µM | MOLT-4 43.7 µM | Malme-3M > 100 µM | NCI-H226 > 100 µM | NCI-H23 44.5 µM | NCI-H460 55 µM | NCI-H522 62.1 µM | NCI/ADR-RES 56.9 µM | OVCAR-4 42.1 µM | OVCAR-5 56.1 µM | OVCAR-8 58.7 µM | PC-3 57.1 µM | RPMI-8226 > 100 µM | RXF 393 > 100 µM | SF-268 76.6 µM | SF-295 88.9 µM | SF-539 > 100 µM | SK-MEL-28 > 100 µM | SK-MEL-2 51.4 µM | SK-MEL-5 > 100 µM | SK-OV-3 > 100 µM | SN12C 42.7 µM | SNB-19 > 100 µM | SW-620 54.5 µM | T47D 80.2 µM | TK-10 > 100 µM | U-251 99.5 µM | UACC-257 97.3 µM | UACC-62 53.2 µM | UO-31 33.6 µM

Cc1ccc2c(=O)c(C(=O)N(CCO)CCO)c[nH]c2n1
inactive: 786-0 > 100 µM | A498 > 100 µM | A549 > 100 µM | ACHN > 100 µM | BT-549 > 100 µM | CAKI-1 > 100 µM | CCRF-CEM > 100 µM | COLO 205 > 100 µM | DU-145 > 100 µM | EKVX > 100 µM | HCT-116 > 100 µM | HL-60 > 100 µM | HOP-62 > 100 µM | HT-29 > 100 µM | Hs-578T > 100 µM | IGROV-1 > 100 µM | K562 > 100 µM | KM12 > 100 µM | LOX IMVI > 100 µM | M14 > 100 µM | MCF7 > 100 µM | MDA-MB-231 > 100 µM | MDA-MB-435 > 100 µM | MDA-N > 100 µM | MOLT-4 > 100 µM | Malme-3M > 100 µM | NCI-H226 > 100 µM | NCI-H23 > 100 µM | NCI-H460 > 100 µM | NCI-H522 > 100 µM | NCI/ADR-RES > 100 µM | OVCAR-3 > 100 µM | OVCAR-4 > 100 µM | OVCAR-5 > 100 µM | OVCAR-8 > 100 µM | PC-3 > 100 µM | RPMI-8226 > 100 µM | RXF 393 > 100 µM | SF-268 > 100 µM | SF-295 > 100 µM | SK-MEL-28 > 100 µM | SK-MEL-2 > 100 µM | SK-MEL-5 > 100 µM | SN12C > 100 µM | SNB-19 > 100 µM | SW-620 > 100 µM | T47D > 100 µM | TK-10 > 100 µM | U-251 > 100 µM | UACC-257 > 100 µM | UACC-62 > 100 µM | UO-31 > 100 µM
> 100 µM: HCT-15

Cc1nc(/C(=N\n2cnnc2)Nc2ccc(Br)cc2)no1
inactive: 786-0 > 100 µM | A498 > 100 µM | A549 > 100 µM | ACHN > 100 µM | BT-549 > 100 µM | CAKI-1 > 100 µM | CCRF-CEM > 100 µM | COLO 205 > 100 µM | DU-145 > 100 µM | EKVX > 100 µM | HCC 2998 > 100 µM | HCT-116 > 100 µM | HOP-62 > 100 µM | HOP-92 > 100 µM | HT-29 > 100 µM | Hs-578T > 100 µM | IGROV-1 > 100 µM | K562 57.1 µM | KM12 > 100 µM | M14 > 100 µM | MCF7 > 100 µM | MDA-MB-231 > 100 µM | MDA-MB-435 > 100 µM | MDA-N > 100 µM | MOLT-4 > 100 µM | Malme-3M > 100 µM | NCI-H23 > 100 µM | NCI-H460 > 100 µM | NCI-H522 > 100 µM | NCI/ADR-RES > 100 µM | OVCAR-3 > 100 µM | OVCAR-4 > 100 µM | OVCAR-5 > 100 µM | OVCAR-8 > 100 µM | PC-3 > 100 µM | RPMI-8226 > 100 µM | RXF 393 > 100 µM | SF-295 > 100 µM | SK-MEL-28 > 100 µM | SK-MEL-2 > 100 µM | SK-MEL-5 > 100 µM | SK-OV-3 > 100 µM | SNB-19 > 100 µM | SNB-75 66.7 µM | SW-620 > 100 µM | T47D > 100 µM | U-251 > 100 µM | UACC-257 > 100 µM | UACC-62 > 100 µM | UO-31 > 100 µM
> 100 µM: HCT-15

Reference: ChEMBL document CHEMBL1201862, “PubChem BioAssay data set” (2004)
